Results published in PubChem BioAssay (NCI).
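Where inhibition never reached the appropriate level, the endpoint shown equals the highest concentration tested. Otherwise, values were interpolated linearly from a five-concentration, 48-hour dose response in 96-well plates. TGI marks complete inhibition of growth.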

How the values were obtained:
Test in all cases: NCI tumour cell line growth inhibition, 48 h
[1] = system: HCT-15 colon
[2] = system: SK-OV-3 ovarian
[3] = system: M14 melanoma
[4] = system: RXF 393 renal
[5] = system: K-562 leukemia
[6] = system: KM12 colon
[7] = system: CAKI-1 renal
[8] = system: MALME-3M melanoma
[9] = system: MDA-N
[10] = system: ACHN renal
[11] = system: MOLT-4 leukemia
[12] = system: SR leukemia
[13] = system: UACC-257 melanoma
[14] = system: SK-MEL-2 melanoma
[15] = system: COLO 205 colon
[16] = system: HOP-62 NSCLC
[17] = system: HCC-2998 colon
[18] = system: NCI-H522 lung
[19] = system: SW-620 colon
[20] = system: A549 NSCLC

Compound | TGI [1] [µM] | TGI [2] [µM] | TGI [3] [µM] | TGI [4] [µM] | TGI [5] [µM] | TGI [6] [µM] | TGI [7] [µM] | TGI [8] [µM] | TGI [9] [µM] | TGI [10] [µM] | TGI [11] [µM] | TGI [12] [µM] | TGI [13] [µM] | TGI [14] [µM] | TGI [15] [µM] | TGI [16] [µM] | TGI [17] [µM] | TGI [18] [µM] | TGI [19] [µM] | TGI [20] [µM]
NC(N)=NS(=O)(=O)c1ccc(Nc2c3ccccc3nc3ccc(C(=O)Nc4ccc(S(N)(=O)=O)cc4)cc23)cc1 | > 100 | > 100 | > 100 | > 100 | > 100 | > 100 | > 100 | > 100 | > 100 | > 100 | > 100 | > 100 | > 100 | > 100 | > 100 | > 100 | > 100 | > 100 | > 100 | > 100
CCN(CC)C(=O)C1=C(C)NC(C)=C(C(=O)N(CC)CC)C1 | > 100 | > 100 | > 100 | > 100 | > 100 | > 100 | > 100 | > 100 | > 100 | > 100 | > 100 | > 100 | > 100 | > 100 | > 100 | > 100 | > 100 | > 100 | > 100 | > 100
C[C@]1(O)CC(=O)c2c(c(-c3ccc4cc5c(c(O)c4c3O)C(=O)C[C@@](C)(O)C5)c3cccc(O)c3c2O)C1 | 11.4 | 24.4 | 29.8 | 17.8 | > 100 | 11.7 | 18.2 | 27.1 | 19.4 | 18 | > 100 | > 100 | 30.8 | 6.22 | 3.3 | 10.9 | 16.4 | 13.5 | 47 | 23.8
CC(C)(C)C1CCC2c3c([nH]c4ccccc34)C3C(=O)N(c4cccc(Cl)c4)C(=O)C3C2C1 (centres undefined) | 42.6 | 63.2 | 28.3 | 22.6 | > 49.6 | 14.5 | 53.2 | 32.4 | 24.7 | 44.2 | 13 | > 36 | 29.6 | 35.1 | 35.8 | 18 | 12.4 | 34.5 | 23.2 | > 55.8
CNC(=S)NNC1=NCCCN1 | > 100 | > 100 | > 100 | > 100 | > 100 | > 100 | > 100 | > 100 | > 100 | > 100 | > 100 | > 100 | > 100 | > 100 | > 100 | > 100 | > 100 | > 100 | > 100 | > 100
C/C(Sc1ccccc1)=C1/CCCN(Cc2ccccc2)C1 | 42.5 | > 100 | 35 | 36.3 | 38.6 | 98.2 | > 100 | 28.6 | > 100 | > 100 | 39.4 | 35.7 | 44.6 | 34 | 32.9 | 61.4 | 53.3 | 38.8 | > 100 | > 100
COc1cccc2c3cccc(OC)c3c3[nH]cnc3c12 | 3.42 | 34.1 | 3.08 | 3.42 | 7.16 | 4.56 | 37.9 | 7.81 | 3.34 | 22.4 | 6.27 | 5.15 | 36.1 | 34.3 | 30.1 | 35.2 | 11.9 | 2.88 | 3.19 | 3.08
CC(C)Cc1ccc(C(C)/C=C2\CCC(CN3CCOCC3)C2=O)cc1 (centres undefined) | 16.4 | 32.8 | 15.9 | 22 | 12.4 | 16.9 | 33.5 | 32 | 24.7 | 29.4 | 11 | 13.8 | 14.7 | 31.3 | 48.4 | 19.3 | 24.1 | 15.4 | 10.8 | 34.8
C[C@@]12C[C@@H](c3ccccc3O1)N1CCSC1=N2 | > 100 | > 100 | > 100 | > 100 | > 100 | > 100 | > 100 | > 100 | > 100 | > 100 | > 100 | > 100 | > 100 | > 100 | > 100 | > 100 | > 100 | > 100 | > 100 | 
Cc1nc2ccc(N=Nc3c(O)ccc4ccccc34)cc2[nH]1 | > 63.5 | > 100 | > 81.5 | > 57.9 | > 100 | > 100 | 49.8 | > 66.5 | 36.7 | > 57.2 | 66.2 | 55.4 | > 63.5 | > 76.8 | > 66.6 | > 100 | > 70.5 | 54.3 | > 70 | > 78.7
CC(=O)OCC1OC(O[C@@H]2C[C@H]3C(C)(C)[C@H](OC(C)=O)CC[C@]3(C)[C@H]3CC[C@@]45C[C@H](O)C[C@H](C)[C@@H]4CC=C5[C@@]32C)C(O)C(O)C1O (some centres undefined) | 25.5 | 22 | 14.8 | 6.23 | 7.66 | 7.59 | 24.6 | 20.3 | 12.4 | 18.5 | 6.33 | 4.27 | 17.8 | 5.93 | 3.28 | 23.8 | 3.72 | 9.28 | 16.6 | 16.9
CC(=O)O[C@@]12[C@@H]3O[C@@]4(O)C[C@]5(C)[C@H]6C[C@@](C(C)C)(O[C@H]5c5ccoc5)O[C@H]1[C@]6(C4)O[C@]2(O)C(C)=CC3(C)C | > 100 | > 100 | > 100 | > 100 | > 100 | > 100 | > 100 | > 100 | > 100 | > 100 | > 100 | > 100 | > 100 | > 100 | > 100 | > 100 | > 100 | > 100 | > 100 | > 100
CSc1c(C#N)c(O)n(-c2ccc(Cl)cc2)c(=O)c1C#N | > 100 | > 100 | > 100 | > 100 | > 100 | > 100 | > 100 | > 100 | > 100 |  | > 100 | > 100 | > 100 | > 100 | > 100 |  | > 100 | > 100 | > 100 | > 100
C/C=C1/CN2CCC34C5=CC(=O)C(c6cc7c(cc6OC)N(C)C6=C(C(=O)OC)CC8(CC)CCCN9CCC67C98)=CC5=NC23CCC1C4C(=O)OC (centres undefined) | 28.3 | 30.9 | 24.8 | 23.3 | 15.9 | 30.3 | 21.9 | 28.6 | 27 | 29.1 | 6.94 | 6.63 | 27.1 | 30.6 | 22.9 | 31.5 | 29.5 | 23.7 | 21.8 | 30.3
CCOC(=O)N/N=C/C1=NN(C(=O)OCC)S(=O)C1C (centres undefined) | > 100 | > 100 | > 100 | > 100 | > 100 | > 100 | > 100 | > 100 | > 100 | > 100 | > 100 | > 100 | > 100 | > 100 | > 100 | > 100 | > 100 | > 100 | > 100 | > 100
COc1cccc(N=N/C(=N/NC(=O)c2cc(Cl)ccc2O)c2ccc(N(CCC#N)CCC#N)cc2C)c1 | > 100 | > 100 | > 100 | > 100 | > 100 | > 100 | > 100 | 48.7 | > 100 | > 100 | 89.6 | > 100 | 59.5 | > 100 | 41.2 | > 100 | 92 | 31.9 |  | > 100
O=C(c1ccsc1)c1cc2c(s1)C(=O)c1ccsc1C2=O | 0.305 | 3.09 | 0.247 | 0.385 |  | 0.434 | 1.57 | 0.0845 | 0.0512 | 0.241 | > 100 | > 100 | 0.324 | 0.982 | 2.97 | 0.431 | 1.56 | 0.323 | 0.341 | 1.25
COc1ccc(Cc2cc(OC)c(OC)c(OC)c2)cc1O | > 100 | > 80.2 | > 100 | > 100 | > 100 |  | > 100 | > 100 | > 100 | > 100 | > 100 | > 100 | > 100 | > 100 | > 57.1 | > 49.6 | > 65.9 | 5.49 | > 100 | > 100
